Results taken from patent publication US12123813B2, “Polymer stabilization of chromogen solutions” (Ventana Medical Systems, Inc., priority 2012, dated 2024).
Counter-ions that a name gives are not always drawn.

Legend:
[1] = Polymer screening: DAB sulfate precipitation after KHSO4 addition (visual); assay type: physicochemical; conditions: additive in DAB chromogen solution
Method: One embodiment of a DAB base solution comprises DAB chromogen, one or more enhancers, and a stabilizer. […] Exemplary base solutions comprise 5.5 mM DAB, 10 mM imidazole, 10 mM 2-hydroxypyridine, and 1 mM sodium metabisulfite, with a pH of 2.5±0.1. In one embodiment, these compositions were tested using KHSO4 concentrations ranging from 0 to about 10 mM; more typically 0, 1.37, 2.75 and 8.0 mM, with DAB sulfate precipitation being induced at 4° C. overnight.
Polymers were screened for their impact on DAB sulfate precipitation formation by combining an enhanced DAB base solution containing a set amount of the polymer with select molar ratios of potassium hydrogen sulfate, KHSO4, relative to DAB. The enhanced DAB base solution used comprised 5.5 mM DAB·4HCl, 10 mM imidazole, 10 mM 2-hydroxypyridine, 1 mM sodium metabisulfite and 0.05% w/v Brij 35 at pH=2.3±0.1. The potassium hydrogen sulfate concentrations screened were 2.75 and 8.0 mM. […] Solutions were monitored for physical changes (i.e. color or precipitation).
Candidate polymers were screened for their impact on DAB sulfate precipitation formation by combining an enhanced DAB base solution containing a set amount of the polymer with select molar ratios of potassium hydrogen sulfate, KHSO4, relative to DAB. […] Solutions were monitored for physical changes (i.e. color or precipitation).

[2] = Water solubility of DAB-polymer complex in chromogen solution; assay type: physicochemical
From the text: Sulfate and sulfonate polymers are believed to form a DAB-polymer salt complex where the hydrophilic polymer backbone helps maintain water solubility.

Row | SMILES | inhibition of DAB sulfate precipitation (in words) [1] | formation of water soluble DAB-polymer complex (in words) [2]
1 | CC(O)CO (centres unmarked) [1,2-propanediol] | failed to inhibit DAB sulfate precipitation | –
2 | NCCOS(=O)(=O)O [2-aminoethylhydrogen sulfate] | – | did not form water soluble DAB complexes
